Molecules are shown by their SMILES.

Holding throughout (type): in vitro ADME
Data set [1] concerns the target T1, CYP2B6 (Homo sapiens, UniProt P20813).
T1 construct: Pooled human liver microsomes were obtained from BD Biosciences Discovery Labware; tissue BD Biosciences Discovery Labware; host or cells: pooled human liver microsomes
T1 sequence (P20813 1-491): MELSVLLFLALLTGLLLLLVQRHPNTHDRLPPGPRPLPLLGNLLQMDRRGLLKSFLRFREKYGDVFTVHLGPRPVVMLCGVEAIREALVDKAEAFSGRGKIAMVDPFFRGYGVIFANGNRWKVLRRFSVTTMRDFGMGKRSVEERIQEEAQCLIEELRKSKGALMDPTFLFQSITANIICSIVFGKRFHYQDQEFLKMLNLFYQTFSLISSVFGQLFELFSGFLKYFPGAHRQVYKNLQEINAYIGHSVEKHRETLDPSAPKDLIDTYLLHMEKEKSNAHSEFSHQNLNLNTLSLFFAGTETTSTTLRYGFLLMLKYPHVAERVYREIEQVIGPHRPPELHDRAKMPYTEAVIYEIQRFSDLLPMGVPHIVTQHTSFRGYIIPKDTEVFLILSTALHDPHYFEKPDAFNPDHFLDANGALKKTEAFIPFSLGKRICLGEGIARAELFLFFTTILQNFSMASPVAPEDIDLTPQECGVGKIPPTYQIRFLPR
Description: CYP2B6 activity (bupropion hydroxylation) in human liver microsomes. The following applies: 0-100 μM plantainoside D. On the procedure:
(§1) The activity of P450s was evaluated by corresponding metabolites using HPLC with Agilent 1260 Series Rapid Resolution HPLC. The reaction system was prepared with the following compositions: HLMs with certain protein concentrations, specific substrates of different isoenzymes, PBS buffer solution, plantainoside D or specific inhibitors, and an NADPH generating system as previously reported. Besides dextromethorphan and quinidine were dissolved in water, other substrated, inhibitors, and plantainoside D were dissolved in methanol with a final concentration of 1% (v/v). Before initiating the reaction, there was a preincubation of 3 min followed by the addition of the NADPH-generating system. [table] [table] […] Furthermore, the inhibition model of P450 isoenzymes was estimated in the presence of various concentrations of corresponding substrates and fitting with Lineweaver–Burk and Dixon plots, and the inhibition constant was calculated by the following equations: […]
Background: Liver microsomes are a subcellular fraction often used to study metabolism.

The target in data set [2] is T2, CYP2C9 (Homo sapiens, UniProt P11712).
T2 construct: Pooled human liver microsomes were obtained from BD Biosciences Discovery Labware; tissue BD Biosciences Discovery Labware; host or cells: pooled human liver microsomes
Description: CYP2C9 activity (diclofenac 4'-hydroxylation) in human liver microsomes. The following applies: 0-100 μM plantainoside D. As to the method:
as §1

Data set [3] deals with T3, CYP2A6 (Homo sapiens, UniProt P11509).
T3 construct: Pooled human liver microsomes were obtained from BD Biosciences Discovery Labware; tissue BD Biosciences Discovery Labware; host or cells: pooled human liver microsomes
T3 sequence (P11509 1-494): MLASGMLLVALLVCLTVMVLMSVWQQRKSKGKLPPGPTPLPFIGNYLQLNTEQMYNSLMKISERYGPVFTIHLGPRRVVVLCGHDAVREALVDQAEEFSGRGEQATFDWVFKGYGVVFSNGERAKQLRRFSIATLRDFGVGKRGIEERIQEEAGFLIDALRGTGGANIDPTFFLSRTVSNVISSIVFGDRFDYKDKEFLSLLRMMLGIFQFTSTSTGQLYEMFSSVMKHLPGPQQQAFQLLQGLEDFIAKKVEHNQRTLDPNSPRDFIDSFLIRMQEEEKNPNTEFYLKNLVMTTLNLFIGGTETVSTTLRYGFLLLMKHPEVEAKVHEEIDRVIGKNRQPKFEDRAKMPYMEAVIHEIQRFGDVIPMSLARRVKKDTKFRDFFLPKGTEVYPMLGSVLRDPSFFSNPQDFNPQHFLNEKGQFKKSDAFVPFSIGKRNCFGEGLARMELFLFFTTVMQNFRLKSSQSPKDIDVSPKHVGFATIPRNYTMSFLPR
Description: CYP2A6 activity (coumarin 7-hydroxylation) in human liver microsomes. The following applies: 0-100 μM plantainoside D. On the procedure:
as §1

Data set [4] deals with T4, CYP3A (Homo sapiens, UniProt P08684). Description: Time-dependent inhibition of CYP3A in human liver microsomes. As to the method:
A total of 1 mg/mL HLMs were firstly incubated with 20 μM plantainoside D and the NADPH-generating system for 30 min. Then, incubation with 20 μL aliquot was carried out for 0, 5, 10, 15, and 30 min in the presence of substrates concentration close to Km. Additionally, the values of KI and Kinact were evaluated in the presence of substrates approximate to fourfold Km according to the equation: 1/Kobs=KI/Kinact×1/[I]+1/Kinact .

Data set [5] has as its target T5, CYP1A2 (Homo sapiens, UniProt P05177).
T5 construct: Pooled human liver microsomes were obtained from BD Biosciences Discovery Labware; tissue BD Biosciences Discovery Labware; host or cells: pooled human liver microsomes
T5 sequence (P05177 1-516): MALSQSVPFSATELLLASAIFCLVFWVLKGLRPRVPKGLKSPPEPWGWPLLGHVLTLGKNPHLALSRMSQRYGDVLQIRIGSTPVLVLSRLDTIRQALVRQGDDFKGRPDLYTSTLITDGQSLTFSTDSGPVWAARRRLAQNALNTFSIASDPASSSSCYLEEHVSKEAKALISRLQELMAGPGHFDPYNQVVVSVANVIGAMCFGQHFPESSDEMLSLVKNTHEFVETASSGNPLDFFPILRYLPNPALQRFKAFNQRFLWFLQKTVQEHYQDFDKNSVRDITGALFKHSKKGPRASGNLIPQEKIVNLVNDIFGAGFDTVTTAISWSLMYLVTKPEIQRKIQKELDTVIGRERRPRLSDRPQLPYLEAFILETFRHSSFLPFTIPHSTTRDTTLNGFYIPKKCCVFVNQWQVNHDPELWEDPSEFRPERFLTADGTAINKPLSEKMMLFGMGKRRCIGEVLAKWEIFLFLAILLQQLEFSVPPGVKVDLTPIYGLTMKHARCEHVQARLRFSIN
The data set can be described thus: Time-dependent inhibition of CYP1A2 in human liver microsomes. Particulars: 20 μM plantainoside D; incubation 0-30 min; 1 mg/mL HLMs. As to the method: (§2) A total of 1 mg/mL HLMs were firstly incubated with 20 μM plantainoside D and the NADPH-generating system for 30 min. Then, incubation with 20 μL aliquot was carried out for 0, 5, 10, 15, and 30 min in the presence of substrates concentration close to Km.

Data set [6] deals with T6, CYP2D6 (Homo sapiens, UniProt P10635).
T6 construct: Pooled human liver microsomes were obtained from BD Biosciences Discovery Labware; tissue BD Biosciences Discovery Labware; host or cells: pooled human liver microsomes
Description: Concentration-dependent inhibition of CYP2D6 (dextromethorphan O-demethylation) in human liver microsomes. On the procedure:
(§3) The activity of P450s was evaluated by corresponding metabolites using HPLC with Agilent 1260 Series Rapid Resolution HPLC. The reaction system was prepared with the following compositions: HLMs with certain protein concentrations, specific substrates of different isoenzymes, PBS buffer solution, plantainoside D or specific inhibitors, and an NADPH generating system as previously reported. Besides dextromethorphan and quinidine were dissolved in water, other substrated, inhibitors, and plantainoside D were dissolved in methanol with a final concentration of 1% (v/v). Before initiating the reaction, there was a preincubation of 3 min followed by the addition of the NADPH-generating system.
(§4) The effect of plantainoside D was primarily evaluated with the concentration of 0, 2.5, 5, 10, 25, 50, and 100 μM and the values of IC50 was evaluated. Furthermore, the inhibition model of P450 isoenzymes was estimated in the presence of various concentrations of corresponding substrates and fitting with Lineweaver–Burk and Dixon plots, and the inhibition constant was calculated by the following equations:
(§5) v=VmaxS/Km1+I/Ki+S for competitive inhibition;
(§6) v=(VmaxS)/[Km+S(1+I/KiKI)] for non-competitive inhibition.
(§7) where I is the concentration of plantainoside D, Ki is the inhibition constant, S is the concentration of the substrate, and Km is the substrate concentration at half the maximum velocity (Vmax) of the reaction.

The target of data set [7] is T5, CYP1A2. Description: Concentration-dependent inhibition of CYP1A2 (phenacetin O-deethylation) in human liver microsomes. On the procedure: as §3, §4, §5, §6, §7
Data set [8] has as its target T7, CYP2C19 (Homo sapiens, UniProt P33261).
T7 construct: Pooled human liver microsomes were obtained from BD Biosciences Discovery Labware; tissue BD Biosciences Discovery Labware; host or cells: pooled human liver microsomes
The data set can be described thus: CYP2C19 activity (S-mephenytoin 4-hydroxylation) in human liver microsomes. Particulars: 0-100 μM plantainoside D. On the procedure: as §1

Data set [9] concerns the target T8, CYP2E1 (Homo sapiens, UniProt P05181).
T8 construct: Pooled human liver microsomes were obtained from BD Biosciences Discovery Labware; tissue BD Biosciences Discovery Labware; host or cells: pooled human liver microsomes
The data set can be described thus: CYP2E1 activity (chlorzoxazone 6-hydroxylation) in human liver microsomes. The following applies: 0-100 μM plantainoside D. On the procedure:
as §1

Data set [10] deals with T4, CYP3A. The data set can be described thus: Concentration-dependent inhibition of CYP3A (testosterone 6β-hydroxylation) in human liver microsomes. On the procedure: as §3, §4, §5, §6, §7
The target in data set [11] is T6, CYP2D6. Description: Time-dependent inhibition of CYP2D6 in human liver microsomes. The following applies: 20 μM plantainoside D; incubation 0-30 min; 1 mg/mL HLMs. As to the method: as §2
In data set [12] the target is T9, CYP2C8 (Homo sapiens, UniProt P10632).
T9 construct: Pooled human liver microsomes were obtained from BD Biosciences Discovery Labware; tissue BD Biosciences Discovery Labware; host or cells: pooled human liver microsomes
T9 sequence (P10632 1-490): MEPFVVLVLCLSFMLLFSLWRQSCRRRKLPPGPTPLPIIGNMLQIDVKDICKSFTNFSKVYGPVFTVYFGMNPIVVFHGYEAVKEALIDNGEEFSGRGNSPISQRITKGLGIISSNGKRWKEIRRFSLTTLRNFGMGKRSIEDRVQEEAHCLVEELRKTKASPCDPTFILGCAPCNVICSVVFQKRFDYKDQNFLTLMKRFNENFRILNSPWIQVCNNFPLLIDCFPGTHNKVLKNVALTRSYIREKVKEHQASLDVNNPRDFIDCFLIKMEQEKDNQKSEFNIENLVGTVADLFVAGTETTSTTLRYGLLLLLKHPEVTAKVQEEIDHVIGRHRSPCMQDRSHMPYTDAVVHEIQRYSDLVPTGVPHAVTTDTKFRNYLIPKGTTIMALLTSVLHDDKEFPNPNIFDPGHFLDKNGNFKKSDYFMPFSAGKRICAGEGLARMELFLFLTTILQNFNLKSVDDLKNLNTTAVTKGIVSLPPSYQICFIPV
The data set can be described thus: CYP2C8 activity (paclitaxel 6α-hydroxylation) in human liver microsomes. The following applies: 0-100 μM plantainoside D. On the procedure:
as §1

Where [13] appears, read: Lineweaver-Burk plot, constant Vmax.
The mark [14] stands for this setting: competitive model, Dixon plot, human liver microsomes.
[15] abbreviates: human, human liver microsomes, probe testosterone (6β-hydroxylation).

T4 sequence (P08684 2-503): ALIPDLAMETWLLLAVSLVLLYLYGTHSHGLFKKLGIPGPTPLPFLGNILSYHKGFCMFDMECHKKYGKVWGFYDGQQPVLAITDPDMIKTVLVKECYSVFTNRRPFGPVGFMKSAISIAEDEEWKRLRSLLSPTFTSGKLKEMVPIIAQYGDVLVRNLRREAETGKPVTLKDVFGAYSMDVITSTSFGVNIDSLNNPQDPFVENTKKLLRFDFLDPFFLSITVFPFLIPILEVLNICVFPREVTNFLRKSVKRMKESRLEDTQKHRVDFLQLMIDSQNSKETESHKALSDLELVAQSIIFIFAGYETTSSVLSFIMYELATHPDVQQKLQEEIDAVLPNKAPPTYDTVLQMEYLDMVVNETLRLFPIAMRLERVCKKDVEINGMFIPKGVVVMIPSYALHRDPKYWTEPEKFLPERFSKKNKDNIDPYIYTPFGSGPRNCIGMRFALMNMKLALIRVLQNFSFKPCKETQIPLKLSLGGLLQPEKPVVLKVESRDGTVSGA
T6 sequence (P10635 whole entry): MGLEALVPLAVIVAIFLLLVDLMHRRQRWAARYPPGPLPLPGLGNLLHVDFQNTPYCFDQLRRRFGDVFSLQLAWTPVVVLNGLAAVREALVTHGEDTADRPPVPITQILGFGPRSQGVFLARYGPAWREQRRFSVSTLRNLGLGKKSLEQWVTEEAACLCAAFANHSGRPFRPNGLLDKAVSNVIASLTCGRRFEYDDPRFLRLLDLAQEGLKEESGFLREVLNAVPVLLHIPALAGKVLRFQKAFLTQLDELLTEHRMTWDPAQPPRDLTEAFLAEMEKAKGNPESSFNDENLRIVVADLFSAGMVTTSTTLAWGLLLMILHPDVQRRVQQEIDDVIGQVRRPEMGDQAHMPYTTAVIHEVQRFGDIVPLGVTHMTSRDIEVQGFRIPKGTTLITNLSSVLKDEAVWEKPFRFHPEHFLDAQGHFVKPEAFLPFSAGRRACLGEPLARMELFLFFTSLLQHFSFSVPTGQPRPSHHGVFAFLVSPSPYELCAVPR
T7 sequence (P33261 whole entry): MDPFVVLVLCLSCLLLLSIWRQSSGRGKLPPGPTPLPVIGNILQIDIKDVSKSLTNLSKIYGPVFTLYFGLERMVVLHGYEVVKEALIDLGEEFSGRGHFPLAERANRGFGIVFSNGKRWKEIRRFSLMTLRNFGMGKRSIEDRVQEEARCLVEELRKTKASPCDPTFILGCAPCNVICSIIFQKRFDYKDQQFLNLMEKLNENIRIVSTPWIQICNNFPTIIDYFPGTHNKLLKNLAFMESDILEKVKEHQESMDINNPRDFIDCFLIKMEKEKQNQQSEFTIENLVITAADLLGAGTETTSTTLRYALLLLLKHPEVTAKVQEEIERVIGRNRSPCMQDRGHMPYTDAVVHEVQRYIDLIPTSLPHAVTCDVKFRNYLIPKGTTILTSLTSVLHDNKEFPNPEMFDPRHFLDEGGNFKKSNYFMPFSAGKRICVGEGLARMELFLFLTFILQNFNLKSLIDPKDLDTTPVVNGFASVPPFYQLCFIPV
T8 sequence (P05181 whole entry): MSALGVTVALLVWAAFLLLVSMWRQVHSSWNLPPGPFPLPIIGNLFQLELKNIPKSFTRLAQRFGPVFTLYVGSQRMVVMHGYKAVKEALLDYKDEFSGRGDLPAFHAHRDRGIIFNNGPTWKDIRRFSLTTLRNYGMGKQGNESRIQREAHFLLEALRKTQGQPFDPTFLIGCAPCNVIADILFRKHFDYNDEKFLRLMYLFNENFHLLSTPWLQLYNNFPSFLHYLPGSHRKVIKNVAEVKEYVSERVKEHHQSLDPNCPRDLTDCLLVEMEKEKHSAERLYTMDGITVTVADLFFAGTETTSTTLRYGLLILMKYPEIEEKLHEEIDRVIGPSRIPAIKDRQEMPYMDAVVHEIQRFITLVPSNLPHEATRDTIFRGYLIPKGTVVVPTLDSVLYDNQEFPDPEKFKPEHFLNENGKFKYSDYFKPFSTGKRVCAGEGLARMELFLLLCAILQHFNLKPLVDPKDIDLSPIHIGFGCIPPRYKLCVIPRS
T2 sequence (P11712 whole entry): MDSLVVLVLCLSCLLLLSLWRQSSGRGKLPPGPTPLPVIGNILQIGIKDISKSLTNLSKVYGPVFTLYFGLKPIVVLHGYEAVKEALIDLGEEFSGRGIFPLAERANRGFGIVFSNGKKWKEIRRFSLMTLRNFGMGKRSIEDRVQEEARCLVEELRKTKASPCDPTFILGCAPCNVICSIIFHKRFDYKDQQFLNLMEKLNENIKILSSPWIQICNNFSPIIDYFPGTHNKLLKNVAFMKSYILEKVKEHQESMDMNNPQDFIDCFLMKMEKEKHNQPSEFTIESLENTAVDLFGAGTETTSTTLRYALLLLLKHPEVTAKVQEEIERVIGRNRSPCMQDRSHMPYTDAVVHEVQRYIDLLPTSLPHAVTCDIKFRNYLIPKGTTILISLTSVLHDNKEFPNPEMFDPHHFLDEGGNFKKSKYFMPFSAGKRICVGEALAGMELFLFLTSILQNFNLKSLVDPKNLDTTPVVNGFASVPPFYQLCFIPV

Usually kinact stands for the maximal first-order rate at which the target is inactivated. A word on the Ki: it is a dissociation constant, usually derived from enzyme kinetics or from competition with a known ligand. Read a high Ki as a looser hold on the target. A word on the IC50: it is the concentration that inhibits the measured activity by half. `O=C(/C=C/c1ccc(O)c(O)c1)OC[C@H]1O[C@@H](OCCc2ccc(O)c(O)c2)[C@H](O)[C@@H](O[C@@H]2O[C@H](CO)[C@@H](O)[C@H](O)[C@H]2O)[C@@H]1O` [plantainoside D, Plantainoside D]: in data set [1], the “Effect on CYP2B6 activity” value is recorded as “no changes”. Moreover, the “Effect on CYP2C9 activity” value in data set [2] was “no changes”. In addition, the “Effect on CYP2A6 activity” value in data set [3] is recorded as “no changes”. Moreover, in data set [4] (20 μM plantainoside D, incubation 0-30 min, 1 mg/mL HLMs), the “Time dependence of CYP3A inhibition” value was “enhanced with the increasing incubation time”. Also, in data set [4] (human liver microsomes, 0, 2, 5, 10, 20, 50 μM plantainoside D, substrate about fourfold Km), the kinact was 0.00065 s⁻¹. Moreover, the “Time dependence of CYP1A2 inhibition” value in data set [5] is “no significant changes with time”. Also, the “Inhibition model of CYP2D6” value in [6] (setting [13]) was “competitive”. For the same compound, the results for the Ki in data set [6] (setting [14]), in data set [7] (setting [14]) and in data set [10] (setting [15]) were 4.54 µM, 6.26 µM and 7.16 µM, respectively. Further, the IC50 in data set [6] (human liver microsomes, 0-100 μM plantainoside D, dextromethorphan substrate) came to 8.39 µM; in [7] (human liver microsomes, 0-100 μM plantainoside D, phenacetin substrate), 12.8 µM; in data set [10] (setting [15]), 14.7 µM. Besides, the “Inhibition model of CYP1A2” value in data set [7] (setting [13]) is recorded as “competitive”. Also, in data set [8], the “Effect on CYP2C19 activity” value is “no changes”. Further, the “Effect on CYP2E1 activity” value in data set [9] is recorded as “no changes”. Moreover, the “Inhibition model of CYP3A” value in [10] (Lineweaver-Burk plot, constant Km) was “non-competitive”. Further, in [11], the “Time dependence of CYP2D6 inhibition” value is “no significant changes with time”. Moreover, the “Effect on CYP2C8 activity” value in data set [12] is given as “no changes”.

Values taken from publication PMC9308932, “Human liver microsomes study on the inhibitory effect of plantainoside D on the activity of cytochrome P450 activity” (BMC Complementary Medicine and Therapies, 2022).
